From patent US20140170158A1, “COMPOSITIONS AND METHODS FOR TREATING OR PREVENTING LUNG DISEASES” (THE JOHNS HOPKINS UNIVERSITY, priority 2012, published 2014)
Entries after “also recorded” stand apart in the source; their conditions may differ.

Assays:
CS-exposed lungs = assay: CS-induced injury measures by immunohistochemistry: oxidative stress, inflammatory cells, proliferation; format: in vivo, mice
Protocol: (§1) Six- to eight-week-old AKR/J male mice were divided into 3 groups. The control group was kept in a filtered air environment, and the experimental groups were subjected to CS or CS plus losartan in drinking water. CS exposure was carried out (2 hours per day, 5 days per week) by burning 2R4F reference cigarettes (University of Kentucky, […], Ky., USA) using a smoking machine (Model TE-10; Teague Enterprises) for 6 to 7 weeks. The average concentration of total suspended particulates and carbon monoxide was 90 mg/m and 350 ppm, respectively, which was monitored on a routine basis.
(§2) The AT1 selective antagonist losartan (Merck Co.) was diluted into drinking water at concentrations of 3 mg/kg (low dose) and 30 mg/kg (high dose). Panselective TGF-β-neutralizing antibody (R&D Systems) was administered by intraperitoneal injection according to published protocol (70). Isotype-matched control antibody (R&D Systems) was administered to control mice as described above.
Tissue sections were deparaffinized and rehydrated in an ethanol series. Sections were blocked for non-specific binding with 3% normal serum from chicken and incubated with the primary antibodies for 1 hour at room temperature. For immunofluorescence, sections were then incubated with secondary antibodies at 1:200 for 30 minutes at room temperature (Molecular Probes). Sections were counterstained with 4′,6′-diamidinio-2-phenylindole (DAPI) and mounted with Vectashield hard set mounting medium (Vector Labs). Briefly, after incubation with the primary antibody overnight at 4° C., slides were washed with PBST, incubated with an appropriate biotinylated secondary antibody (Jackson ImmunoResearch Inc.), and developed by using ABC and DAB detection reagents (Vector Laboratories). […]

[1] = system: lung gene expression pathways; assay: Expression profile analysis of whole lung RNA; format: in vivo, mice; settings: 2 months CS plus losartan
Protocol: Six- to eight-week-old AKR/J male mice were divided into 3 groups. The control group was kept in a filtered air environment, and the experimental groups were subjected to CS or CS plus losartan in drinking water. CS exposure was carried out (2 hours per day, 5 days per week) by burning 2R4F reference cigarettes (University of Kentucky, […], Ky., USA) using a smoking machine (Model TE-10; Teague Enterprises) for 6 to 7 weeks. […] Panselective TGF-β-neutralizing antibody (R&D Systems) was administered by intraperitoneal injection according to published protocol (70). Isotype-matched control antibody (R&D Systems) was administered to control mice as described above. Total RNA was extracted from the designated murine lungs, six in each treatment group, using the Trizol Reagent method (Invitrogen, Carlsbad, Calif. 92008, cat. no. 15596-026). Additional purification was performed on RNAeasy columns (Qiagen, Valencia, Calif. 913555, cat. no. 74104). The quality of total RNA samples was assessed using an Agilent 2100 Bioanalyzer (Agilent Technologies, Palo Alto, Calif.). The six RNA samples from each time point were pooled into two groups comprised of three murine specimens. […] The hybridized biotinylated cRNA was detected with streptavidin-Cy3 and quantitated using Illumina's BeadStation 500GX Genetic Analysis Systems scanner. […]

[2] = Body weight of CS- or RA-exposed mice; format: in vivo; settings: for CS-induced weight loss: CS-exposed mice, two months treatment
Protocol: as §1, §2

[3] = system: chronic CS-exposed AKR/J mice; assay: Morphometric analysis of airspace dimension and airway attachments in chronic CS-induced emphysema model; format: in vivo
Protocol: as §1, with “The control group was kept in a filtered air environment, and the experimental groups were subjected to CS or CS plus losartan in drinking water.” left out
[…] Panselective TGF-β-neutralizing antibody (R&D Systems) was administered by intraperitoneal injection according to published protocol (70). Isotype-matched control antibody (R&D Systems) was administered to control mice as described above.
Three to five mice of each genotype were studied at the noted ages. For histologic and morphometric analyses, mouse lungs were inflated at a pressure of 25 cm H2O and fixed with 4% PFA in low molecular weight agarose. […]
Mean linear intercept measurements were performed on H&E-stained sections taken at intervals throughout both lungs. […] Mean chord lengths and mean linear intercepts were assessed by automated morphometry with a macro-operation performed by Metamorph Imaging Software (Universal Imaging, Molecular Devices). Mean airway thickness was measured directly using microscope-captured images at ×40 magnification. […]

Akt, JNK, p38 = assay: Immunoblotting of activated and total Akt, JNK and p38 in lung lysates; format: in vivo, mice; settings: CS-exposed lungs, attenuated by CS
Protocol: as §1, §2
(§3) Whole lung lysates were extracted in M-Per buffer from Pierce. Protein concentrations were determined using the Bio-Rad Protein Assay. Aliquots of 30-50 μg protein were boiled and then loaded onto Tris-HCL gels and transferred electrophoretically to nitrocellulose membranes. Membranes were incubated with the primary antibody for 1 hour at room temperature. Detection was performed by the Pierce West Dura ECL Detection System. […]

TGF-β signaling (psmad2) = assay: Immunohistochemical staining for psmad2, a marker of TGF-β signaling, in lungs; format: in vivo; settings: chronic CS-exposed mice
Protocol: as §1, §2
(§4) Tissue sections were deparaffinized and rehydrated in an ethanol series. Sections were blocked for non-specific binding with 3% normal serum from chicken and incubated with the primary antibodies for 1 hour at room temperature. For immunofluorescence, sections were then incubated with secondary antibodies at 1:200 for 30 minutes at room temperature (Molecular Probes). […]

[4] = system: alveolar epithelial apoptosis; assay: TUNEL and active caspase-3 labeling in the airspace; format: in vivo; settings: CS-exposed mice
Protocol: as §1, §2, §4

[5] = system: small airways of chronic CS-exposed mice; assay: Airway histology: wall thickness, Ki67, trichrome, αSMA; format: in vivo
Protocol: Six- to eight-week-old AKR/J male mice were divided into 3 groups. The control group was kept in a filtered air environment, and the experimental groups were subjected to CS or CS plus losartan in drinking water. […] The average concentration of total suspended particulates and carbon monoxide was 90 mg/m and 350 ppm, respectively, which was monitored on a routine basis.
as §2
Mean linear intercept measurements were performed on H&E-stained sections taken at intervals throughout both lungs. Slides were coded, captured by an observer, and masked for identity for the groups. Ten to fifteen images per slide were acquired at ×20 magnification and transferred to a computer screen. Mean chord lengths and mean linear intercepts were assessed by automated morphometry with a macro-operation performed by Metamorph Imaging Software (Universal Imaging, Molecular Devices). Mean airway thickness was measured directly using microscope-captured images at ×40 magnification. Hart's staining was performed per published protocol using either van Gieson or tartrazine counterstaining (71).
Tissue sections were deparaffinized and rehydrated in an ethanol series. Sections were blocked for non-specific binding with 3% normal serum from chicken and incubated with the primary antibodies for 1 hour at room temperature. For immunofluorescence, sections were then incubated with secondary antibodies at 1:200 for 30 minutes at room temperature (Molecular Probes). Sections were counterstained with 4′,6′-diamidinio-2-phenylindole (DAPI) and mounted with Vectashield hard set mounting medium (Vector Labs). Briefly, after incubation with the primary antibody overnight at 4° C., slides were washed with PBST, incubated with an appropriate biotinylated secondary antibody (Jackson ImmunoResearch Inc.), and developed by using ABC and DAB detection reagents (Vector Laboratories). Antibodies were used at the following concentrations: Ki67 (1:50; Santa Cruz Biotechnology Inc.), nitrotyrosine (Abcam), Mac3 (BD Biosciences), CD45R (Santa Cruz Biotechnology Inc.), psmad2 (Cell Signaling Technology), TUNEL (1:25; Abcam), JNK/pJNK (Cell Signaling Technology), Akt/pAkt (Cell Signaling Technology), LAP— TGF-β1 (R&D Systems), CTGF (Abcam), Angiotensin type 1 receptor (Santa Cruz Biotechnology Inc.), and active caspase-3 (Abcam).

MMP12 = assay: Western blot analysis of MMP12 expression in lung lysates; format: in vivo; settings: CS-exposed mice
Protocol: as §1, §2, §3

MMP9 = assay: Zymography of lung extracts; format: in vivo; settings: CS-exposed mice
Protocol: as §1, §2

[6] = system: chronic CS-exposed AKR/J mice; assay: Measurement of mouse lung mechanics; format: in vivo
Protocol: as §1
as §2, with “above. […]” for “above.”
After being connected they were paralyzed with Succinylcholine (75 mg/kg) and ventilated with a tidal volume of 0.2 mL of 100% oxygen at a rate of 150 breathes/min, with a positive end expiratory pressure (PEEP) of 3 cm H2O. […] One minute later Rrs and Ers were measured (74). […] The expression levels of target genes were determined in triplicate from the standard curve and normalized to Gapdh mRNA level.

active TGF-β = assay: ELISA of active TGF-β in lung lysates of CS-exposed mice; format: in vivo; settings: AKR/J and C57BL/6 mice, two weeks of CS exposure, concurrent treatment
Protocol: as §1, §2

elastin = assay: Elastin localization by Hart's stain; format: in vivo; settings: CS-exposed mice
Protocol: as §1, §2

AT1 receptor = molecular target: T1, AT1 receptor (Mus musculus, UniProt P29754); assay: Immunohistochemistry for the AT1 receptor in murine lungs; format: in vivo, mice; settings: 2 months CS
T1 construct: from tissue; host or cells: fixed lung sections of AKR/J mice
T1 sequence (P29754 1-359): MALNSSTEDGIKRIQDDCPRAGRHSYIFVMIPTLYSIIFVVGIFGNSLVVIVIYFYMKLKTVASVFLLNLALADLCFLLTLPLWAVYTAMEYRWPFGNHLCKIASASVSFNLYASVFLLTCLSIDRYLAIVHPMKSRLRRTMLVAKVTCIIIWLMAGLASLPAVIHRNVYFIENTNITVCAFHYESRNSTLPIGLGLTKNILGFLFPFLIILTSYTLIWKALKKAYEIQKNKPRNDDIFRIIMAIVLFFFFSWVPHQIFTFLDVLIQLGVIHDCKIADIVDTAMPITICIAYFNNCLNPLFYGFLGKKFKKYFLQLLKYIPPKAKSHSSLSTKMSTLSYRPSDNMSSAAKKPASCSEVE
Protocol: as §1, §2

CCCCc1nc(Cl)c(CO)n1Cc1ccc(-c2ccccc2-c2nn[nH]n2)cc1 [losartan]
inflammatory cell infiltration (alveolar macrophage and lymphocyte numbers) (CS-exposed lungs; AKR/J mice, CS-exposed lungs): reduced inflammatory cell infiltration | oxidative stress (nitrotyrosine and 8-deoxyguanine immunostaining) (CS-exposed lungs; AKR/J mice, CS-exposed lungs): normalized oxidative stress | airspace epithelial cell proliferation reduced by CS (CS-exposed lungs; CS-exposed mice): did not normalize | oxidoreductase, B cell receptor signaling, chemokine signaling, and cytokine receptor interaction pathways (induced with CS) [1]: repressed with losartan treatment | stress response and MAPK pathway genes (downregulated with CS) [1]: induced with losartan treatment | CS-induced weight loss [2]: not improved | CS-induced weight loss ([2]; listed as Losartan): does not rescue CS-induced weight loss | body weight of RA-exposed mice ([2]; room air-exposed mice): did not alter body weight | airspace dimension (mean linear intercept) ([3]; 2 months CS, concurrent treatment (losartan 0.6 or 1.2 g/l in drinking water; antibody 10 mg/kg/wk)): marked reduction in the airspace dimension; also recorded: attenuate destructive airspace enlargement | airway alveolar attachments, a measure of airspace destruction ([3]; CS-exposed): recovery with losartan treatment | JNK and p38 activation (Akt, JNK, p38): only Akt activation was normalized | TGF-β signaling (phosphorylated smad2 in alveolar and airway epithelium) (TGF-β signaling (psmad2)): normalized with losartan treatment; also recorded: inhibit chronic CS-induced TGF-β signaling in the lung | TUNEL labeling in the airspace [4]: attenuated | active caspase-3 labeling in the airspace [4]: attenuated | airway epithelial thickening (airway mucosal thickness) ([5]; 2 months CS, small airways of similar size): normalized | airway epithelial proliferation (Ki67 staining) ([5]; CS-exposed mice): trend toward reduction | density and abundance of αSMA-producing smooth muscle cells surrounding the small airways ([5]; data not shown): not changed | peribronchiolar collagen deposition (trichrome) ([5]; mice exposed to 3 months of CS): normalized collagen deposition | MMP12 expression in the lungs (MMP12): normalized | MMP9 activation (MMP9): normalized | lung elastance [6]: normalized | lung size (total lung capacity) [6]: normalized | active TGF-β in lung lysates by ELISA (active TGF-β): normalized TGF-β in both strains | elastin fragmentation in the airspaces (elastin): improved with losartan treatment | AT1 staining in the airspace walls (AT1 receptor): normalized
